From PubChem BioAssay AID248 (DTP/NCI, 2004)
Values joined by “and” are separate entries in the source; they are usually repeats but may differ in a detail not shown here. Equal entries are not always repeated. Inconclusive results and toxic doses are left out. Rule as the data show it: active = T/C of 150% or more; inactive = T/C below 125%.

System: L1210 leukemia ip in BDF1 mice, survival T/C
Test: NCI In Vivo Anticancer Drug Screen. Data for tumor model L1210 Leukemia (intraperitoneal) in B6D2F1 (BDF1) mice
Conditions: endpoint: mean survival time, higher = longer survival
Procedure, shortened: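 Antitumor effect is assessed in tumor-bearing animals. Survival in the compound arm is compared with a vehicle-dosed control arm and expressed as their quotient.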

[1] = dose: 50.0 mg/kg/injection, schedule: Q01DX009 (ip), vehicle: saline with Tween-80
[2] = dose: 100.0 mg/kg/injection, schedule: Q01DX009 (ip), vehicle: saline with Tween-80
[3] = dose: 200.0 mg/kg/injection, schedule: Q01DX009 (ip), vehicle: saline with Tween-80
[4] = dose: 12.5 mg/kg/injection, schedule: Q04DX003 (ip), vehicle: saline with Tween-80
[5] = dose: 25.0 mg/kg/injection, schedule: Q01DX001 (ip), vehicle: saline with Tween-80
[6] = dose: 25.0 mg/kg/injection, schedule: Q04DX003 (ip), vehicle: saline with Tween-80
[7] = dose: 50.0 mg/kg/injection, schedule: Q01DX001 (ip), vehicle: saline with Tween-80
[8] = dose: 100.0 mg/kg/injection, schedule: Q04DX003 (ip), vehicle: Klucel (hydroxypropylcellulose) (HPC)
[9] = dose: 200.0 mg/kg/injection, schedule: Q04DX003 (ip), vehicle: Klucel (hydroxypropylcellulose) (HPC)
[10] = dose: 400.0 mg/kg/injection, schedule: Q04DX003 (ip), vehicle: Klucel (hydroxypropylcellulose) (HPC)
[11] = dose: 100.0 mg/kg/injection, schedule: Q01DX001 (ip), vehicle: saline
[12] = dose: 200.0 mg/kg/injection, schedule: Q01DX001 (ip), vehicle: saline
[13] = dose: 400.0 mg/kg/injection, schedule: Q01DX001 (ip), vehicle: saline
[14] = dose: 100.0 mg/kg/injection, schedule: Q04DX003 (ip), vehicle: saline with Tween-80
[15] = dose: 200.0 mg/kg/injection, schedule: Q04DX003 (ip), vehicle: saline with Tween-80
[16] = dose: 400.0 mg/kg/injection, schedule: Q04DX003 (ip), vehicle: saline with Tween-80

Measured: T/C

CC1CCCCN1C(=O)Nc1ccc(Cl)cc1Cl (centres undefined)
inactive: [1] 91 % of control | [2] 102 % of control | [3] 98 % of control

COc1nc(C)c(C)[n+]([O-])n1
inactive: dose: 12.5 mg/kg/injection, schedule: Q01DX001 (ip), vehicle: saline with Tween-80 94 % of control | dose: 12.5 mg/kg/injection, schedule: Q01DX009 (ip), vehicle: saline with Tween-80 96 % of control | [4] 97 % of control | [5] 100 % of control | dose: 25.0 mg/kg/injection, schedule: Q01DX009 (ip), vehicle: saline with Tween-80 108 % of control | [6] 110 % of control | [7] 107 % of control | [1] 96 % of control | dose: 50.0 mg/kg/injection, schedule: Q04DX003 (ip), vehicle: saline with Tween-80 94 % of control

CN(C)CC1CCCCC1=O (centres undefined)
inactive: [2] 97 % of control | [8] 102 % of control | dose: 100.0 mg/kg/injection, schedule: Q04DX003 (ip), vehicle: saline 103 % of control | [3] 96 % of control | [9] 102 % of control | dose: 200.0 mg/kg/injection, schedule: Q04DX003 (ip), vehicle: saline 110 % of control | [10] 97 % of control | dose: 400.0 mg/kg/injection, schedule: Q04DX003 (ip), vehicle: saline 103 % of control

O=C(O)CCC(=O)NCCNC(=O)CC(=O)O
inactive: [11] 100 % of control | [12] 105 % of control | [13] 100 % of control

CC(=O)Nc1cc(F)c([N+](=O)[O-])cc1[N+](=O)[O-]
inactive: dose: 0.62 mg/kg/injection, schedule: Q01DX009 (ip), vehicle: saline 96 % of control | dose: 1.25 mg/kg/injection, schedule: Q01DX009 (ip), vehicle: saline 102 % of control | dose: 2.5 mg/kg/injection, schedule: Q01DX009 (ip), vehicle: saline 93 % of control | dose: 2.5 mg/kg/injection, schedule: Q01DX015 (ip), vehicle: carboxymethylcellulose (CMC) 95 % of control | dose: 3.13 mg/kg/injection, schedule: Q04DX003 (ip), vehicle: saline with Tween-80 106 % of control | dose: 5.0 mg/kg/injection, schedule: Q01DX009 (ip), vehicle: saline 104 % of control | dose: 5.0 mg/kg/injection, schedule: Q01DX015 (ip), vehicle: carboxymethylcellulose (CMC) 95 % of control | dose: 6.25 mg/kg/injection, schedule: Q04DX003 (ip), vehicle: saline with Tween-80 90 % of control | dose: 10.0 mg/kg/injection, schedule: Q01DX009 (ip), vehicle: saline with Tween-80 92 % of control | dose: 10.0 mg/kg/injection, schedule: Q01DX009 (ip), vehicle: saline 96 % of control | dose: 10.0 mg/kg/injection, schedule: Q01DX015 (ip), vehicle: carboxymethylcellulose (CMC) 91 % of control | [4] 94 % of control | dose: 12.5 mg/kg/injection, schedule: Q04DX003 (ip), vehicle: saline 86 % of control | dose: 20.0 mg/kg/injection, schedule: Q01DX009 (ip), vehicle: saline with Tween-80 103 % of control | [6] 105 % of control | dose: 50.0 mg/kg/injection, schedule: Q01DX001 (ip), vehicle: saline 104 % of control and 106 % of control | [11] 95 % of control and 91 % of control | [12] 112 % of control | [13] 106 % of control

Cc1ccc(-n2c(O)c(C=N)c(=O)[nH]c2=O)cc1
inactive: [2] 97 % of control | [3] 93 % of control

COC(=O)C(O)c1cccc(OC)c1 (centres undefined)
inactive: [2] 96 % of control | [14] 107 % of control | [3] 93 % of control | [15] 96 % of control | dose: 400.0 mg/kg/injection, schedule: Q01DX009 (ip), vehicle: saline with Tween-80 104 % of control | [16] 105 % of control

Nc1cc2oc3ccccc3c2c2cccnc12
inactive: dose: 100.0 mg/kg/injection, schedule: Q01DX001 (ip), vehicle: Klucel (hydroxypropylcellulose) (HPC) 103 % of control | [8] 106 % of control | dose: 200.0 mg/kg/injection, schedule: Q01DX001 (ip), vehicle: Klucel (hydroxypropylcellulose) (HPC) 100 % of control | [9] 103 % of control | dose: 400.0 mg/kg/injection, schedule: Q01DX001 (ip), vehicle: Klucel (hydroxypropylcellulose) (HPC) 91 % of control | [10] 103 % of control

Cc1cc(C)c(NC(=S)NC(=O)c2ccccc2)cc1C
inactive: dose: 100.0 mg/kg/injection, schedule: Q04DX002 (ip), vehicle: gum acacia 88 % of control | dose: 200.0 mg/kg/injection, schedule: Q04DX002 (ip), vehicle: gum acacia 100 % of control | dose: 400.0 mg/kg/injection, schedule: Q04DX002 (ip), vehicle: gum acacia 96 % of control

CC(C)(C)C1CCC(=N[N+](C)(C)C)CC1 (centres undefined)
inactive: [11] 104 % of control

CCCC(C)(C)SSC(C)(C)CCC
inactive: [2] 98 % of control | [14] 103 % of control | [3] 96 % of control | [15] 110 % of control | [16] 117 % of control

CCOC(=O)C(C(=O)OCC)c1nc(=O)[nH]c(=O)[nH]1
inactive: dose: 100.0 mg/kg/injection, schedule: Q01DX Z (ip), vehicle: methylcellulose (MC) 97 % of control

O=[N+]([O-])/C(Br)=C\c1ccc([N+](=O)[O-])cc1
inactive: dose: 75.0 mg/kg/injection, schedule: Q01DX001 (ip), vehicle: carboxymethylcellulose (CMC) 98 % of control | dose: 150.0 mg/kg/injection, schedule: Q01DX001 (ip), vehicle: carboxymethylcellulose (CMC) 105 % of control

CCOC(=O)/C(Br)=C/SCCN
inactive: dose: 100.0 mg/kg/injection, schedule: Q01DX009 (ip), vehicle: saline 97 % of control | dose: 200.0 mg/kg/injection, schedule: Q01DX009 (ip), vehicle: saline 92 % of control | dose: 400.0 mg/kg/injection, schedule: Q01DX009 (ip), vehicle: saline 91 % of control

O=C(O)CC1CCCCC1CC(=O)O (centres undefined)
inactive: dose: 25.0 mg/kg/injection, schedule: Q04DX002 (ip), vehicle: Klucel (hydroxypropylcellulose) (HPC) 101 % of control | dose: 50.0 mg/kg/injection, schedule: Q04DX002 (ip), vehicle: Klucel (hydroxypropylcellulose) (HPC) 98 % of control | dose: 100.0 mg/kg/injection, schedule: Q04DX002 (ip), vehicle: Klucel (hydroxypropylcellulose) (HPC) 92 % of control | dose: 200.0 mg/kg/injection, schedule: Q04DX002 (ip), vehicle: Klucel (hydroxypropylcellulose) (HPC) 95 % of control and 97 % of control | dose: 400.0 mg/kg/injection, schedule: Q04DX002 (ip), vehicle: Klucel (hydroxypropylcellulose) (HPC) 107 % of control

CCCCCCCCCCCCC/C=C/CC(CC(=O)O)C(=O)Nc1cccc2c[n+](CC(=O)c3ccc(NC(C)=O)cc3)ccc12 (centres undefined)
inactive: [8] 111 % of control | [9] 101 % of control | [10] 105 % of control

Clc1cc(/C=C/c2ccccc2)c2ccccc2n1
inactive: [11] 105 % of control | [12] 105 % of control | [13] 100 % of control

COc1c(N)ccc(-c2ccc(N)c(OC)c2Cl)c1Cl
inactive: dose: 75.0 mg/kg/injection, schedule: Q04DX003 (ip), vehicle: saline with Tween-80 94 % of control

O=C(NCCCl)NC1OC(CO)C(O)C(O)C1O (centres undefined)
inactive: [11] 107 % of control | [12] 101 % of control | [13] 96 % of control

CCCCCCCCCN(CCCC)CCCC
inactive: [5] 95 % of control | [7] 88 % of control | dose: 100.0 mg/kg/injection, schedule: Q01DX001 (ip), vehicle: saline with Tween-80 102 % of control
